The text below walks through data of publication PMC10954734, “Structure of antiviral drug bulevirtide bound to hepatitis B and D virus receptor protein NTCP” (Nature Communications, 2024).

Assay [1] deals with Gly158Arg Common squirrel monkey NTCP. Conditions: ref [54]; cited from earlier work.
Description: (§1) We aligned the sequence of human NTCP to that of Cynomolgus monkey and Common squirrel monkey, which are representatives of the Old and New World monkeys, respectively (Fig. 6a and Supplementary Fig. 6).
Assay [2] deals with T1, human NTCP (Homo sapiens, UniProt Q14973).
T1 construct: The full-length wild-type human NTCP gene (UniProt ID: Q14973); expressed in transfected cells
T1 sequence (Q14973 1-349): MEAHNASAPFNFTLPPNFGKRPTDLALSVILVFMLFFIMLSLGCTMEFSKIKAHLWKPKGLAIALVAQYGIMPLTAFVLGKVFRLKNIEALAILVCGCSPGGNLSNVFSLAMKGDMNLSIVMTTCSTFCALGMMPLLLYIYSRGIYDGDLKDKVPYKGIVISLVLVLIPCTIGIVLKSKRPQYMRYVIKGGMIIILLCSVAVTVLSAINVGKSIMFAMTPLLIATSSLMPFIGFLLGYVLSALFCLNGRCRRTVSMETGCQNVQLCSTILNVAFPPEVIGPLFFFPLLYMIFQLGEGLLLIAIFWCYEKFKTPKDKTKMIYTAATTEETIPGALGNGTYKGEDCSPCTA
Description: preS1-AX568 binding to HEK-NTCP cells (and its inhibition by TC). It counts as cell-based. Conditions: preincubation with 250 µM TC.
Description: Human embryonic kidney Flp-In T-Rex 293 cells (Thermo Fisher Scientific, R78007, hereafter referred to as non-NTCP expressing HEK293 cells) stably expressing the human NTCP protein were generated according to the manufacturer’s guidelines as reported before[62] and are hereafter referred to as HEK-NTCP cells. […] For induction of NTCP expression, HEK-NTCP cells were incubated with 1 μg/mL tetracycline (Carl Roth, HP63.1)[62]. […] Inhibitor preincubation was performed over 5 min at 37 °C, consistent with previously published data[64]. Quantification of relative fluorescence was assessed at 570 nm excitation and 615 nm emission on a fluorescence microplate reader (TECAN Life Sciences).

For assay [3], the system named is Gly158Arg human NTCP. Conditions: ref [54]; cited from earlier work.
Description: as §1
Assay [4] concerns SVPs from patient ID1 (HBV GtD). The assay can be described thus: Binding of nanodisc-reconstituted NTCP-eYFP to SVPs of patient ID1 (GtD). Conditions: 25–100 nM.
Description: (§2) The lipids were then mixed with detergent-purified NTCP and incubated at room temperature for 5 min with gentle agitation. Next, membrane scaffold protein (MSP1D1) was added to the mixture and incubated for 20 min at room temperature. […] Bio-Beads were removed by passing through a gravity column (Bio-Rad), and the mixture was briefly spun at 4000 × g at 4 °C to remove excess lipids. […] Peak fractions containing nanodisc-reconstituted NTCP were collected and concentrated.
(§3) Subviral particles (SVPs) were isolated from plasma of two chronic HBV-infected patients by three consecutive ultracentrifugation steps according to published protocols[13]. Briefly, SVP were separated from virions using rate zonal ultracentrifugation through a sucrose density gradient. SVP-containing fractions were pooled and further purified using caesium chloride (CsCl) flotation ultracentrifugation. Pooled SVP-fractions were further purified using a second sucrose density gradient and concentrated by ultrafiltration. […] For fluorescence measurement, 100 μL HBS buffer was added to each well and the fluorescence intensity of eYFP was detected at 485 nm excitation and 535 nm emission on a fluorescence microplate reader (TECAN Life Sciences).
Assay [5] deals with SVPs from patient K826 (HBV GtA). The assay can be described thus: Binding of nanodisc-reconstituted NTCP-eYFP to SVPs of patient K826 (GtA). Conditions: 25–100 nM.
Description: as §2, §3

As for `C[C@H](CCC(=O)NCCS(=O)(=O)O)[C@H]1CC[C@H]2[C@@H]3[C@H](O)C[C@@H]4C[C@H](O)CC[C@]4(C)[C@H]3C[C@H](O)[C@]12C` [TC, taurocholic acid], the “TC transport, effect of Gly158Arg mutation” value in assay [1] and in assay [3] was “maintaining the transport activity of NTCP for TC” throughout. For the same compound, in assay [2], the “block of preS1-AX568 binding to NTCP (in words)” value was “can be blocked”.
Consider “NTCP: nanodisc-reconstituted, eYFP-labeled wild-type human NTCP”, for which the “binding to GtD SVPs (in words)” value in assay [4] is “concentration-dependent binding”. Moreover, the “binding to GtA SVPs (in words)” value in assay [5] was “concentration-dependent binding”.
